Test results as given in patent US11337909B2, “Methods for modulating pigmentation by angiotensin-converting enzyme 2 modulation” (Max-Delbrück-Centrum für Molekulare Medizin in der …, priority 2017, dated 2022).
“Also recorded” adds a separate entry of the source. Counter-ions that a name gives are not always drawn.

Assays:
ACE2 [1] = biological target: T1, ACE2 (Homo sapiens, UniProt Q9BYF1); conditions: in vitro and in vivo; Shenoy et al; cited from earlier work
Target sequence in this assay (Q9BYF1 18-805, species assumed): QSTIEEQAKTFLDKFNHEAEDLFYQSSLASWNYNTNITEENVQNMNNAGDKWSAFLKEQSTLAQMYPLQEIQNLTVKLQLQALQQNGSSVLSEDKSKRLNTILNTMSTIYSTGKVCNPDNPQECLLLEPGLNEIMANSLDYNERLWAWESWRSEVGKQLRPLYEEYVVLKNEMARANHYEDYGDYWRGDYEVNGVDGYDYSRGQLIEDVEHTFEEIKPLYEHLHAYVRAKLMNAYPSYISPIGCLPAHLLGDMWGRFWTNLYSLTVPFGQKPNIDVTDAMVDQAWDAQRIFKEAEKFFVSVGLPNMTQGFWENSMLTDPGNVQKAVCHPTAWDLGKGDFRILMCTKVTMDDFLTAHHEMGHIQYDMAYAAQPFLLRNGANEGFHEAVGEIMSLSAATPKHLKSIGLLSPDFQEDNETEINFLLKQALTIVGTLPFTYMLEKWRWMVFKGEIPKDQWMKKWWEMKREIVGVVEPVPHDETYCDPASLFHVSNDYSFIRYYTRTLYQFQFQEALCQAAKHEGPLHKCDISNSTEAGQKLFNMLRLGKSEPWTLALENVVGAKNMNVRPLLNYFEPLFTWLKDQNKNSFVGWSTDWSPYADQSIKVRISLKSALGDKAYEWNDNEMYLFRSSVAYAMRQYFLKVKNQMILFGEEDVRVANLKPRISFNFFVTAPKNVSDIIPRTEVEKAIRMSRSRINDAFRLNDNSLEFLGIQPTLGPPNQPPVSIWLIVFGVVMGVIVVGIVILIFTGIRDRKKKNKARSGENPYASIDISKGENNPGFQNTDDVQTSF

tyrosinase (TYR) = experiment: Tyrosinase (TYR) expression in B16F10 cells by real-time RT-PCR; type: cell-based, mouse; conditions: 1 nM aMSH + 10 ng/μl DIZE, 48 hours, FIG. 7; dihydrochloride
Method: B16F10 mouse melanoma cells were incubated with 1 nM aMSH, 10 ng/μl diminazene aceturate (DIZE, ACE2 activator) or a combination of both for 48 hours and the expression of the melanin-synthesizing enzyme tyrosinase (TYR) was quantified by real-time RT-PCR; **p<0.01; *p<0.05.
B16F10 mouse melanoma cells were incubated with 1 nM aMSH, 10 ng/μl diminazene aceturate (DIZE, ACE2 activator) or a combination of both for 48 hours and the expression of the melanin-synthesizing enzyme tyrosinase (TYR) was quantified by real-time RT-PCR.

ACE2 [2] = experiment: ACE2 expression in B16F10 cells by real-time RT-PCR; type: cell-based, mouse; conditions: 10 ng/μl DIZE, 48 hours, FIG. 8
Method: B16F10 mouse melanoma cells were incubated with 10 ng/μl diminazene aceturate (DIZE, ACE2 activator) for 48 hours and the expression of ACE2 was quantified by real-time RT-PCR; *p<0.05.

ACE2 [3] = biological target: T1, ACE2; conditions: ACE2 inhibitor; cited from earlier work
Target sequence in this assay (Q9BYF1 18-805, species assumed): as above

[4] = system: human abdominal skin biopsies; experiment: Fontana-Masson melanin staining in human abdominal skin biopsies; type: cell-based; conditions: FIG. 5
Method: FIG. 5: ACE2 limits the efficiency of αMSH1-13 in human skin; Fontana-Masson staining in human abdominal skin biopsies. Melanin was stained black by Fontana-Masson staining in human abdominal skin biopsies after treatment with vehicle, 10 nM αMSH1-13, or 10 nM αMSH1-13+100 nM of the ACE2-Inhibitor MLN476.
(§1) Biopsies were treated with vehicle, 10 nM αMSH1-13, 10 nM αMSH1-13+100 nM of the ACE2-Inhibitor MLN4760, or 100 nM MLN4760 alone.

Tyrosinase = Tyrosinase mRNA expression in human abdominal skin biopsies; type: cell-based; conditions: for tyrosinase mRNA expression: FIG. 4
Method: FIG. 4: ACE2 limits the efficiency of αMSH1-13 in human skin; Tyrosinase expression. Tyrosinase (melanin synthesizing enzyme) mRNA expression was measured in human abdominal skin biopsies after treatment with vehicle, 10 nM αMSH1-13, 10 nM αMSH1-13+100 nM of the ACE2-Inhibitor MLN4760, or 100 nM MLN4760 alone.
as §1

[5] = system: B16F10 mouse melanoma cells; experiment: Cell culture assay for melanogenesis in B16F10 melanoma cells; type: cell-based
From the text: FIG. 2: Melanogenesis in B16F10 melanoma cells stimulated with α-MSH1-13 and α-MSH1-12. *** p<0.001 compared to control without α-MSH, +++, +p<0.001, p<0.05 α-MSH1-12 compared to the same concentration of α-MSH1-13.
In wild-type mice, the inventors further confirmed previous studies in humans (Ham-ming et al., 2004, Grzegrzolka et al., 2013) showing that ACE2 is expressed in the skin.

ACE2 [6] = biological target: T1, ACE2; parameters: purchased Enzo life sciences, Plymouth meeting, PA; conditions: Kulemina and Ostrov; cited from earlier work
Target sequence in this assay (Q9BYF1 18-805): as the sequence (Q9BYF1 18-805, species assumed) above

ACE2 [7] = biological target: T1, ACE2; conditions: Hernandez Prada et al; cited from earlier work
Target sequence in this assay (Q9BYF1 18-805, species assumed): as above

ACE2 [8] = biological target: T1, ACE2; conditions: Mores et al; read-out: Ki value toward ACE2; cited from earlier work
Target sequence in this assay (Q9BYF1 18-805, species assumed): as above

## N=C(N)c1ccc(/N=N/Nc2ccc(C(=N)N)cc2)cc1 [DIZE, 4-[2-(4-carbamimidoylphenyl)iminohydrazinyl]benzenecarboximidamide dihydrochloride]
ACE2 [1]
  enhancement of the enzymatic activity of ACE2: enhance the enzymatic activity of ACE2
Tyrosinase (TYR)
  tyrosinase (TYR) expression, effect on αMSH stimulation: inhibits the stimulating effect of aMSH; also recorded: inhibits the stimulating effect of αMSH
ACE2 [2]
  ACE2 expression: stimulates ACE2 expression

## CC(C)C[C@H](N[C@@H](Cc1cncn1Cc1cc(Cl)cc(Cl)c1)C(=O)O)C(=O)O [MLN-4760, (2S)-2-[[(1S)-1-carboxy-2-[3-[(3,5-dichlorophenyl)methyl]imidazol-4-yl]ethyl]amino]-4-methylpentanoic acid]
ACE2 [3]
  IC50: 0.5 nM
[4]; 10 nM αMSH1-13 + 100 nM ACE2 inhibitor
  melanin levels (Fontana-Masson staining), effect on αMSH1-13 increase: This effect is further increased by ACE2 inhibition
Tyrosinase; 10 nM αMSH1-13 + 100 nM MLN4760, FIG. 4
  tyrosinase mRNA expression, effect on αMSH1-13 stimulation: This effect is increased by ACE2 inhibition
Tyrosinase; 100 nM MLN4760 alone
  tyrosinase mRNA expression: ACE2 inhibition alone already stimulates tyrosinase expression
[5]; B16F10 cells, α-MSH1-13 + human recombinant ACE2, FIG. 3
  effect on the ACE2-mediated inhibition of α-MSH1-13 melanogenic effect: inhibits the effect of ACE2

## Cc1ccc(S(=O)(=O)Oc2ccc3oc4c(CO)ccc(NCCN(C)C)c4c(=O)c3c2)cc1 [XNT, [8-(2-dimethylaminoethylamino)-5-(hydroxymethyl)-9-oxoxanthen-2-yl]4-methyl-benzenesulfonate]
ACE2 [6]
  increase of the velocity of the enzyme (rate of catalysis): approximately twofold
ACE2 [7]
  enhancement of ACE2 activity: enhance ACE2 activity in a dose-dependent manner

## CC(=O)NC(Cc1c[nH]cn1)C(=O)N1CCCC1P(=O)(O)CC(Cc1cc(-c2ccccc2)no1)C(=O)O (stereo not shown) [compound 41]
ACE2 [8]
  Ki: 0.4 nM

## O=C1OC2(c3ccc(O)cc3Oc3cc(O)ccc32)c2cccc3cccc1c23 [resorcinolnaphthalein]
ACE2 [7]
  enhancement of ACE2 activity: enhance ACE2 activity in a dose-dependent manner

## human recombinant ACE2: human recombinant angiotensin-converting enzyme 2
[5]; B16F10 cells, with α-MSH1-13, FIG. 3 upper panel
  effect of added ACE2 on melanogenic activity of α-MSH1-13: Inhibition of the melanogenic effect of α-MSH1-13; also recorded: reduces its melanogenic activity

## α-MSH1-12: expected ACE2 digestion product of α-MSH1-13 (SYSMEHFRWGKP)
[5]; B16F10 mouse melanoma cells, FIG. 2
  melanogenic activity relative to α-MSH1-13: at least 100 times less active

## α-MSH1-13: α-melanocyte stimulating hormone, 13-amino-acid peptide hormone
[4]; 10 nM αMSH1-13 vs vehicle
  melanin levels (Fontana-Masson staining): increases melanin levels
Tyrosinase; 10 nM αMSH1-13 vs vehicle
  tyrosinase mRNA expression: stimulates tyrosinase expression
